Assay results published in patent US5750521A, “Mercaptoacetylamide disulfide derivatives useful as inhibitors of enkephalinase and ACE” (Hoechst Marion Roussel Inc., priority 1996, dated 1998).

Molecular target: T1, ACE, rat kidney preparations (Rattus norvegicus, UniProt P47820)
T1 construct: compound- or vehicle-dosed rat kidney preparations; from tissue; host or cells: kidney of male Sprague-Dawley rats
T1 sequence (P47820 36-1313): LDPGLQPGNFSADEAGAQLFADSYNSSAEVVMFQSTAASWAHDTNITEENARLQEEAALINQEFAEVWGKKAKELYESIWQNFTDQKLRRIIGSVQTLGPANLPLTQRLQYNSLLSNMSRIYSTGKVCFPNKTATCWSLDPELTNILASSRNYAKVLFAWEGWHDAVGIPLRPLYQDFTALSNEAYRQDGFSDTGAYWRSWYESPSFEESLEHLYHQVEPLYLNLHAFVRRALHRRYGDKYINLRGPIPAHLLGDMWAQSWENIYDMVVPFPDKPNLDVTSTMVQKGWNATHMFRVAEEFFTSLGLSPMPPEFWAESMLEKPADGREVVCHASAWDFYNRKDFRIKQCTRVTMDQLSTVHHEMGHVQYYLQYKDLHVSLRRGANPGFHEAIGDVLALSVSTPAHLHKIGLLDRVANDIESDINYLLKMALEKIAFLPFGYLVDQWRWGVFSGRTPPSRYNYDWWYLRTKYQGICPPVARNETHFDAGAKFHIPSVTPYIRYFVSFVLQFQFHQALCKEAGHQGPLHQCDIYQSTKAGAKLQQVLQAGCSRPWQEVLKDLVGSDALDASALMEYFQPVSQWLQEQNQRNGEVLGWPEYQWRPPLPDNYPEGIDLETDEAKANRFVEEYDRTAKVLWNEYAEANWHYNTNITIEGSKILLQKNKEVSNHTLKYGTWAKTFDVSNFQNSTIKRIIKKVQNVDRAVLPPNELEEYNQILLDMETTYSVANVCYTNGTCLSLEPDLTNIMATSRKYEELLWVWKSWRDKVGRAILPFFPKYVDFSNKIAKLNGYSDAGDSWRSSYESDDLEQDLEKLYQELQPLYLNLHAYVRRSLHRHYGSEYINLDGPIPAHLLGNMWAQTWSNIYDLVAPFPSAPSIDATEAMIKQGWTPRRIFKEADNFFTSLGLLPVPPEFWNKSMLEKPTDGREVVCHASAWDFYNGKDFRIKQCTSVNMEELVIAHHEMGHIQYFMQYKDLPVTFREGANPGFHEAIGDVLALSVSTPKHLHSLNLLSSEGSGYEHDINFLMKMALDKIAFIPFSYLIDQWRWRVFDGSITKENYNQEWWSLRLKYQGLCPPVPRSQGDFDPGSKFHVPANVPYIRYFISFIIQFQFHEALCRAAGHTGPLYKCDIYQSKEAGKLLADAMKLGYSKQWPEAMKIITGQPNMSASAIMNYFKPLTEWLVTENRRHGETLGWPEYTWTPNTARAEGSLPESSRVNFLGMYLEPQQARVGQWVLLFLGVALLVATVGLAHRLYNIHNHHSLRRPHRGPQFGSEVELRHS
Experiment: radiometric ACE assay with tritiated hippuryl-glycyl-glycine
Type: biochemical
Settings: 1 μM enalaprilat; compound- or vehicle-dosed rat kidney preparations

- inhibition of radioactive product formation: Complete inhibition
Compound: C[C@H](N[C@@H](CCc1ccccc1)C(=O)O)C(=O)N1CCC[C@H]1C(=O)O [enalaprilat]
